In patent publication US9676820B2, “Method for inhibiting proliferation of high LIX1L-expressing tumor cell, and tumor cell proliferation-inhibiting peptide” (National University Corporation Hamamatsu University School …, priority 2013, dated 2017):

What was measured:
[1] = tested on: NUGC-4 strain; assay: MTT assay, NUGC-4 strain; type: cell-based; settings: 72 hours, peptide concentrations up to 250 μM
Protocol: (§1) Specifically, first, cells plated in a 96-well microplate such that the density thereof became 5×10^3 cells/well were cultured for one night in a culture solution having the same composition as those in the reference examples. […] After the culturing, an MTT-containing PBS solution was added to the culture solution, and the mixture was incubated for 4 hours. Then, formazan which was generated by putting 100 μL of isopropanol (containing 34 (v/v) % of hydrochloric acid) into each of the wells was dissolved. The absorbance of each of the wells of the microplate at 570 nm was measured using a microplate reader. As controls, culturing was performed in the same manner except that no peptide was added to the strains, an MTT assay was performed thereon, and the absorbance at 570 nm was measured (untreated).
(§2) In the method for measuring the viable cell counts, cells were cultured for 3 days similarly to Example 1 except that a 25 μM (10 μM for an HL-60 strain, a K562 strain, and a U937 strain) culture solution containing a control peptide or a peptide 1 was used, and the viable cell counts were measured. As a comparison, culturing was performed similarly to the above using a culture solution containing no peptide, and the viable cell counts were measured (untreated).
(§3) In addition, in the method for performing an MTT assay, cells were cultured for 72 hours similarly to Example 2 except that a peptide to be added to a strain was set to a control peptide or a peptide 1 at 25 μM (10 μM for an HL-60 strain, a K562 strain, and a U937 strain), an MTT assay was performed thereon, and the absorbance at 570 nm was measured. As a comparison, culturing was performed similarly to the above using a culture solution containing no peptide, and the MTT assay was performed thereon (untreated).
(§4) Specifically, the cells were cultured for 72 hours similarly to Example 2 except that a peptide to be added to a cell was set to a peptide 1, 2, 5, or 6, MTT assays were performed thereon, and the absorbance at 570 nm was measured. As a comparison, culturing was performed similarly to the above using a culture solution containing no peptide, and the MTT assay was performed thereon (untreated).
(§5) Specifically, the cells were cultured for 72 hours similarly to Example 2 except that peptides to be added to cell strains were set to peptides 7 to 14, MTT assays were performed thereon, and the absorbance at 570 nm was measured. […]
(§6) Specifically, the cells were cultured for 72 hours similarly to Example 2 except that a peptide to be added to a cell strain was set to a peptide 15 or 16, an MTT assay was performed thereon, and the absorbance at 570 nm was measured. […]

[2] = tested on: MKN45 strain; assay: MTT assay, MKN45 strain; type: cell-based; settings: 72 hours, peptide concentrations up to 250 μM
Protocol: as §1, §2, §3, §4, §5, §6

[3] = tested on: 293 FLG; assay: MTT assay, 293 FLG cells; type: cell-based; settings: 72 hours, peptide concentrations up to 250 μM
Protocol: as §1, §2, §3, §4, §5, §6

[4] = tested on: K562 strain; assay: MTT assay, K562 strain; type: cell-based; settings: 72 hours; for absorbance at 570 nm (MTT assay), influence on cell proliferation: peptide 0 μM to 100 μM
Protocol: (§7) Specifically, first, cells plated in a 96-well microplate such that the density thereof became 5×10^3 cells/well were cultured for one night in a culture solution having the same composition as those in the reference examples. Thereafter, the culture solution was exchanged with 100 μL of a culture solution of which the concentration of peptides is 0 μM to 100 μM for culturing for 72 hours. After the culturing, an MTT-containing PBS solution was added to the culture solution, and the mixture was incubated for 4 hours. Then, formazan which was generated by putting 100 μL of isopropanol (containing 34 (v/v) % of hydrochloric acid) into each of the wells was dissolved. The absorbance of each of the wells of the microplate at 570 nm was measured using a microplate reader. As controls, culturing was performed in the same manner except that no peptide was added to the strains, an MTT assay was performed thereon, and the absorbance at 570 nm was measured (untreated).
(§8) Specifically, the cells were cultured for 72 hours similarly to Example 2 except that a peptide to be added to a cell strain was set to peptide 1, 3, or 4, or a control peptide, an MTT assay was performed thereon, and the absorbance at 570 nm was measured.
as §2, §3, §4
as §4, with “that peptides” for “that a peptide”, “to” for “to a”, “cell strains were” for “cell was”, “to peptides 7 to 14,” for “to a peptide 1, 2, 5, or 6,”
Specifically, the cells were cultured for 72 hours similarly to Example 2 except that a peptide to be added to a cell strain was set to a peptide 15 or 16, an MTT assay was performed thereon, and the absorbance at 570 nm was measured. As a comparison, culturing was performed similarly to the above using a culture solution containing no peptide, and the MTT assay was performed thereon (untreated).

[5] = tested on: 293 FLG/LIX1L; assay: MTT assay, 293 FLG/LIX1L cells; type: cell-based; settings: 72 hours, peptide concentrations up to 250 μM
Protocol: as §1, §2, §3, §4, §5, §6

[6] = tested on: RPMI8226 strain; assay: MTT assay, RPMI8226 strain; type: cell-based; settings: peptide 0 μM to 100 μM, 72 hours
Protocol: as §7, §8

[7] = tested on: U937 strain; assay: MTT assay, U937 strain; type: cell-based; settings: peptide 0 μM to 100 μM, 72 hours
Protocol: as §7, §8, §2, §3

[8] = tested on: MKN45 cell strains; assay: Cancer mouse model transplanted with MKN45 cell strain; type: in vivo; settings: nude mice with MKN45 transplant; 100 μL of 30 μM peptide solution 4 times; vs spare mice given nothing
Protocol: Rearing of 10 nude male mice (BALB/cAJcl-nu/nu, purchased from CLEA Japan, Inc.) at the age of 7 weeks was started, and MKN45 cell strains separately cultured were transplanted into the mice by being subcutaneously injected thereinto on day 31. The day on which the transplantation was performed was set as day 0, the mice were divided into two groups (peptide 1-administered group and control peptide-administered group) of 5 mice on day 14 of the transplantation, 4 mice were selected among the 5 mice from each group, and the peptide 1 or the control peptide was administered. The remaining one mouse was set as a spare. In the peptide 1-administered group, 100 μL of a 30 μM peptide 1 solution (solution prepared by adding a methylcellulose solution to the solution after the peptide 1 was dissolved in PBS (−)) was subcutaneously injected into a tumor site (site into which the MKN45 cell strain was injected) 4 times every 3 days. In the control peptide-administered group, 100 μL of a 30 μM control peptide solution (solution prepared by adding a methylcellulose solution to the solution after the control peptide was dissolved in PBS (−)) was subcutaneously injected into a tumor site 4 times on the same days as those in the peptide 1-administered group.
The results in which the points of time (days) at which a peptide solution was administered to each mouse and the volume (mm^3) of a tumor site were temporally measured are shown in FIG. 21. For the volume of the tumor site, the width and the length of the tumor site determined from the appearance of the mouse were measured and calculated using the following formula. [Volume(mm^3) of Tumor Site]=([Width(mm) of Tumor Site]^2×[Length(mm) of Tumor Site])/2
The “width of tumor site” referred herein means a maximum width of a portion in which the skin has risen due to the tumor and the “length of tumor site” means a maximum length of a portion in which the skin has risen due to the tumor.

Q: “YGRKKRRQRRR-X-HTQGYGRVNV-NH2 (YGRKKRRQRRRXHTQGYGRVNV; ε-aminocaproic acid linker; C-terminal amide; peptide 6)” was tested. Which “cell proliferation (MTT assay, absorbance at 570 nm)” value [1] did it give?
A: not inhibited

Q: What about the “cell proliferation (MTT assay, absorbance at 570 nm)” value [2] of the same compound?
A: not inhibited

Q: What about the “cell proliferation (MTT assay, absorbance at 570 nm)” value [3] of the same compound?
A: not inhibited

Q: And the “cell proliferation (MTT assay, absorbance at 570 nm)” value ([4]; peptide concentrations up to 250 μM)?
A: not inhibited

Q: What about the “cell proliferation (MTT assay, absorbance at 570 nm)” value [5] of the same compound?
A: not inhibited

Q: “peptide 4: peptide in which the Y136-containing partial sequence consists of 30 amino acids (YGRKKRRQRRRXALVVYEMVPSNSPPYVCYVTLPGGSCFGSF; peptide 4)” was tested. Which “absorbance at 570 nm (MTT assay), influence on cell proliferation” value (from here on “absorbance at 570 nm … on cell proliferation”) [6] did it give?
A: not inhibited

Q: And the “absorbance at 570 nm (MTT assay), cell proliferation” value [7]?
A: inhibited

Q: And the “absorbance at 570 nm … on cell proliferation” value [4]?
A: inhibited

Q: `N=C(N)NCCC[C@H](NC(=O)CNC(=O)[C@@H](N)Cc1ccc(O)cc1)C(=O)N[C@@H](CCCCN)C(=O)N[C@@H](CCCCN)C(=O)N[C@@H](CCCNC(=N)N)C(=O)N[C@@H](CCCNC(=N)N)C(=O)N[C@@H](CCC(N)=O)C(=O)N[C@@H](CCCNC(=N)N)C(=O)N[C@@H](CCCNC(=N)N)C(=O)N[C@@H](CCCNC(=N)N)C(=O)NCCCCCC(N)=O` [control peptide, reference compound] was tested. Which body weight [8] did it give?
A: no particularly significant change

Q: For “peptide 3: peptide in which the Y136-containing partial sequence consists of 20 amino acids (YGRKKRRQRRRXEMVPSNSPPYVCYVTLPGGS; peptide 3)”, which “absorbance at 570 nm … on cell proliferation” value [6] is on record?
A: not inhibited

Q: And the “absorbance at 570 nm (MTT assay), cell proliferation” value [7]?
A: inhibited

Q: What about the “absorbance at 570 nm … on cell proliferation” value [4] of the same compound?
A: inhibited
